Source: patent publication US9532949B2, “Intraperitoneally-administered nanocarriers that release their therapeutic load based on the inflammatory environment of cancers” (STC.UNM, priority 2011, dated 2017)

Columns and labels:
[1] = Photochemical ozone production catalyzed by amino acids in cell-free system (indigo carmine absorbance at 610 nm); settings: for Ozone production: 1 mM amino acid or 5 mg/mL BSA, 10 μM 6-biopterin, UVA irradiation, 30 μM indigo carmine
Description: FIG. 4. Ozone production catalyzed by amino acids in cell-free system in presence of 10 μM 6-biopterin and with UVA irradiation. Tubes also contained 30 μM indigo carmine which got converted by ozone to isatin sulfonic acid as detected by a decrease in absorbance at 610 nm. 1 mM of each amino acid and 5 mg/mL BSA in phosphate buffer were tested. Error bars represent standard deviation for three replicates.
FIG. 5. Both UVA and 6BP are required to generate ozone by tryptophan. 1 mM Trp was tested. Error bars represent standard deviation for three replicates.
FIG. 6. Dose response curve for generation of ozone by increasing concentrations of Trp. Tested concentrations were 0, 10, 20, 40, 80 & 160, 500, 1000 μM tryptophan. Higher concentrations 500 μM and 1 mM Trp are not shown as they gave similar results to 160 μM. Error bars represent standard deviation for three replicates.
We successfully generated ozone (a molecule with the chemical signature of ozone) in a cell-free system by employing a photochemical source i.e. by adding a photosensitizer and exposing the tube contents to UVA irradiation. Our findings are summarized in this section. Four amino acids (tryptophan, methionine, cysteine, and histidine), but not other amino acids were reported to have the same catalytic activity as antibodies needed for water oxidation to produce ozone along with increasing bactericidal activity of neutrophils by employing a photochemical source. For our preliminary studies we used amino acids as the simplest mechanism to generate ozone. The photosensitizer we used is 6-biopterin (Sigma-Aldrich, St Louis, Mo.), and the UVA irradiation (315-400 nm) was provided by an ozone-free 1000W Xenon arc lamp as a solar simulator with blocking UVB radiation by appropriate filters (Oriel Instruments, Stratford, Conn.). The output of UVA radiation was confirmed and was measured by a UV meter (Model 3D, Solar Light, Glenside, Pa.) to be 6 mW/cm^2; we exposed the samples for 4 minutes. Ozone was detected through its conversion of indigo carmine (a blue dye with absorbance maximum at 610 nm) to isatin sulfonic acid (colorless) as we monitored this conversion by measuring absorbance at 610 nm as previously described.
The platform we plan to use employs supported lipid bilayers (SLBs) on porous silica. We will test the disruption of SLBs by ozone employing the above described system to generate ozone photochemically by Trp. […] Disruption of the SLB by TX 100 caused release of the encapsulated fluorescein (14 fold increase in fluorescence by TX100 vs. untreated spheres).

macrophages = experiment: Generation of ROS by activated macrophages (CellROX, flow cytometry); format: cell-based; settings: PMA 1 μM for 30 minutes, 5 μM CellROX
Description: H36.12j and RAW264.7 macrophages cell line was obtained from American Type Cell Culture (ATCC, Manassas, Va.). H36.12j cells were grown in Delbecco's Modified Eagles Medium (ATTC, Manassas, Va.) supplemented with 10% (v/v) Heat-inactivated iron bovine calf serum. Propagation was at 37° C. in 5% carbon dioxide. RAW264.7 cells were grown in Delbecco's Modified Eagles Medium (ATTC, Manassas, Va.) supplemented with 10% (v/v) fetal bovine serum. Propagation was at 37° C. in 10% carbon dioxide.
Cells (0.2×10^6 in 500 uL media) were pipetted into each well of 24-well plate. Cells were stimulated with phorbol-12-myristate-13-acetate (PMA), (Sigma—Saint Louis, Mo.) at a final concentration of 1 μM for 30 minutes, followed by an incubation with 5 μM CellROX (Invitrogen) for 30 minutes to detect ROS. Fluorescence was then determined by flow cytometry.

[2] = Disruption of supported lipid bilayer on porous silica spheres by Triton X-100, release of fluorescein; settings: 5% (w/v) Triton X-100; 3 μm porous silica spheres, egg PC bilayer, supernatant fluorescence
Description: FIG. 7. Disruption of lipid bilayer by Triton X-100. 3 μm silica spheres with 50 Å nominal pore size were incubated with 5 mM fluorescein then coated with a lipid bilayer made of egg phosphatidyl choline. Part of spheres was left with no treatment, and part was treated with Triton X-100 (TX 100) at a final concentration of 5% (w/v). Fluorescence of the supernatant after sedimenting the spheres was examined to check for release of fluorescein.
The platform we plan to use employs supported lipid bilayers (SLBs) on porous silica. We will test the disruption of SLBs by ozone employing the above described system to generate ozone photochemically by Trp. For detecting disruption of the SLB we tested the proof-of-concept by adding Triton X-100 (TX 100) to spheres encapsulating fluorescein within 3 microns porous silica (Macherey-Nagel, Germany) followed by forming the SLB as previously described (FIG. 7). Disruption of the SLB by TX 100 caused release of the encapsulated fluorescein (14 fold increase in fluorescence by TX100 vs. untreated spheres).

Description for OVCA cells: For all above experiments, DOX will be added directly to cells as a positive control after determining the optimal concentration of the drug to be used to cause at least 70% cytotoxicity. […] Negative controls include (1) absence of ROS either by not activating macrophages; and (2) addition of nanocarriers devoid of DOX but with generation of ROS. Data will be collected in triplicates and comparisons will be done using a non-parametric Welch's two sample t-test where any p-value below 0.05 will be considered statistically significant.
However, for the nanocarriers, 72 hr may allow internalization of the nanocarriers and release of DOX regardless of presence of ROS.

For `N[C@@H](Cc1c[nH]c2ccccc12)C(=O)O` [tryptophan], the “Conversion of singlet oxygen to ozone, dose response” value ([1]; 0-1000 μM tryptophan) was “dose-dependent manner”, the Ozone production [1] was “photochemically generated ozone” and the Ozone production ([1]; listed as Tryptophan) was “highest level of ozone”. For the same molecule, the “Water oxidation (ozone generation) by tryptophan alone” value ([1]; without 6-biopterin and UVA exposure, 1 mM Trp) was “not capable of water oxidation”.

With `CCCCCCCCCCCCCC(=O)O[C@@H]1[C@@H](C)[C@@]2(O)[C@@H](C=C(CO)C[C@]3(O)C(=O)C(C)=C[C@@H]23)[C@@H]2C(C)(C)[C@]12OC(C)=O` [PMA, phorbol-12-myristate-13-acetate] the “Generation of ROS by macrophages” value (macrophages) was “ROS was generated”.

For `COc1cccc2c1C(=O)c1c(O)c3c(c(O)c1C2=O)C[C@@](O)(C(=O)CO)C[C@@H]3O[C@H]1C[C@H](N)[C@H](O)[C@H](C)O1` [DOX, doxorubicin], the “Cytotoxicity (cell death)” value (OVCA cells) was 96% and the Cytotoxicity (OVCA cells; 1 μM DOX, 24 hr incubation) was roughly 45%.

In the case of Triton X-100 [TX 100], the “Increase in fluorescence (release of encapsulated fluorescein) vs. untreated spheres” value [2] is reported as 14 fold.
